This is an account of results in patent publication US10875895B2, “Antibacterial cell-penetrating peptides” (Purdue Research Foundation, priority 2018, dated 2020).

≈ marks a conversion by molar mass, not a printed value. Like-named read-outs stand apart in the source and are kept apart here. Non-standard residues stand in square brackets, D forms with d. Residues, ends and D or L forms follow the SMILES beside them. *: point of attachment. X1 = O=C(O)c1cc(C(=O)*)ccc1-c1c2ccc(=O)cc-2oc2cc(O)ccc12; Pro(trans-4-guanidino) = N=C(N)N[C@H]1CN[C@H](C(=O)O)C1; Propyl(3-guanidino) = N=C(N)NCCC*; Hyp = O=C(O)[C@@H]1C[C@@H](O)CN1; Isobutyl = CC(C)C* Where only a bound is given, the exact number is not on record here.

The test system of test [1] is A baumannii 19606.
For test [2], the system named is E. faecium 700221.
The subject of test [3] is S. epidermidis NRS 101.
In test [4] the test system is K. pneumoniae 1706.
Test [5] has as its system S. enteritidis.
Test [6] relates to S. aureus ATCC 6538.
Test [7] concerns P. aeruginosa 31041.
Test [8] deals with L. monocytogenes 191112.
Test [9] relates to E. cloacae 1134.
The subject of test [10] is S. typhimurium LT2.
For test [11], the system named is P. aeruginosa 50573.
Test [12] deals with A. baumannii 1747.
The subject of test [13] is P. aeruginosa 48982.
Test [14] relates to K. pneumonia NR 41920.
Test [15] has as its system P. aeruginosa 31040.
The subject of test [16] is S. aureus NRS 382.
In test [17] the test system is A. baumannii 1605.
Test [18] deals with S. aureus NRS 384.
Test [19] deals with E. coli 21922.
Test [20] has as its system K. pneumonia NR 41928.
The subject of test [21] is S. aureus NRS 383.
Test [22] relates to VRSA 5.
For test [23], the system named is VRSA 10.
The subject of test [24] is S. flexneri 1a. Put plainly: MIC, broth microdilution (CLSI). It is filed as cell-based. As to conditions: enteric pathogens. The procedure: (§1) The minimum inhibitory concentration (MIC) of the peptides (in uM/ml) and control antibiotics (vancomycin and gentamicin) in μg/mL, were determined using the broth microdilution method according to the guidelines of the Clinical and Laboratory Standards Institute (CLSI) guidelines. See CLSI. 2007. Methods for dilution antimicrobial susceptibility tests for bacteria that grow aerobically; approved standard M7-A7. CLSI, Wayne, Pa.
For orientation: Dilution methods test growth across graded concentrations, often in twofold steps.

For test [25], the system named is S. aureus RN 4220. As to the kind of experiment: MIC, broth microdilution (CLSI). Format: cell-based. The procedure: as §1

For `CC(C)CO[C@@H]1C[C@@H](C(=O)N2C[C@H](OCCCNC(=N)N)C[C@H]2C(=O)N2C[C@H](OCCCNC(=N)N)C[C@H]2C(=O)N2C[C@H](OCC(C)C)C[C@H]2C(=O)N2C[C@H](OCCCNC(=N)N)C[C@H]2C(=O)N2C[C@H](OCCCNC(=N)N)C[C@H]2C(=O)N2C[C@H](OCC(C)C)C[C@H]2C(=O)N2C[C@H](OCCCNC(=N)N)C[C@H]2C(=O)N2C[C@H](OCCCNC(=N)N)C[C@H]2C(=O)N2C[C@H](OCC(C)C)C[C@H]2C(=O)N2C[C@H](OCCCNC(=N)N)C[C@H]2C(=O)N2C[C@H](OCCCNC(=N)N)C[C@H]2C(=O)N2C[C@H](OCC(C)C)C[C@H]2C(N)=O)N(C(=O)CNC(=O)c2ccc(-c3c4ccc(=O)cc-4oc4cc(O)ccc34)c(C(=O)O)c2)C1` [Example P14-LRR] (X1-G[Hyp](Isobutyl)[Hyp](Propyl(3-guanidino))[Hyp](Propyl(3-guanidino))[Hyp](Isobutyl)[Hyp](Propyl(3-guanidino))[Hyp](Propyl(3-guanidino))[Hyp](Isobutyl)[Hyp](Propyl(3-guanidino))[Hyp](Propyl(3-guanidino))[Hyp](Isobutyl)[Hyp](Propyl(3-guanidino))[Hyp](Propyl(3-guanidino))[Hyp](Isobutyl)-NH2; N-terminus and C-terminus assumed), the minimal inhibitory concentration (MIC) (in general, the least concentration at which growth counts as inhibited) in test [1] (19606) was 2 µM (≈ 5.95 µg/mL); in [2] (700221) it was 2 µM (≈ 5.95 µg/mL); in [3] (NRS 101), 2 µM (≈ 5.95 µg/mL); in test [4] (1706), more than 32 µM; in test [5] it was 4 µM (≈ 11.9 µg/mL); in [6] (ATCC 6538), 16 µM (≈ 47.6 µg/mL). Moreover, the minimum inhibitory concentration (MIC) in test [7] (31041) was 32 µM (≈ 95.2 µg/mL); in [8] (191112), 8 µM (≈ 23.8 µg/mL); in test [9] (1134), 32 µM (≈ 95.2 µg/mL); in test [10] (LT2) it was 16 µM (≈ 47.6 µg/mL); in test [11] (50573), 16 µM (≈ 47.6 µg/mL); in [12] (1747), 1 µM (≈ 2.98 µg/mL). Further, the MIC in test [13] (48982) was 32 µM (≈ 95.2 µg/mL); in test [14] it was 32 µM (≈ 95.2 µg/mL); in test [15] (31040), 32 µM (≈ 95.2 µg/mL); in test [16] (NRS 382) it was 32 µM (≈ 95.2 µg/mL); in test [17] (1605), 1 µM (≈ 2.98 µg/mL); in test [18] (NRS 384) it was 16 µM (≈ 47.6 µg/mL). The figures for the MIC in test [19] (21922), in test [20] and in [21] (NRS 383) were 4 µM (≈ 11.9 µg/mL), more than 32 µM and 32 µM (≈ 95.2 µg/mL), respectively.

In the case of gentamicin, the MIC in [1] (A baumannii 19606) was 16 µM; in [2] (E. faecium 700221, ESKAPE pathogens), more than 32 µM; in test [22], 0.5 µM; in [3] (S. epidermidis NRS 101), 32 µM; in test [4] (K. pneumoniae 1706, ESKAPE pathogens), 2 µM; in [23] it was 0.5 µM. Further, the MIC was 0.25 µM in [5] (S. enteritidis, enteric pathogens); 0.125 µM in test [6] (S. aureus ATCC 6538); 32 µM in test [7] (P. aeruginosa 31041); 0.5 µM in [8] (L. monocytogenes 191112, enteric pathogens); 0.5 µM in test [24]; 0.5 µM in test [25]. Further, the MIC in test [9] (E. cloacae 1134, ESKAPE pathogens) was 0.5 µM; in [10] (S. typhimurium LT2, enteric pathogens), 0.5 µM; in test [11] (P. aeruginosa 50573, ESKAPE pathogens), 0.25 µM; in test [12] (A. baumannii 1747), 0.25 µM; in test [13] (P. aeruginosa 48982), more than 32 µM; in test [14] (K. pneumonia NR 41920, ESKAPE pathogens), 1 µM. Moreover, the MIC in [15] (P. aeruginosa 31040) was 16 µM; in test [16] (S. aureus NRS 382), 0.5 µM; in test [17] (A. baumannii 1605, ESKAPE pathogens), more than 32 µM; in [18] (S. aureus NRS 384, ESKAPE pathogens) it was 0.5 µM; in [19] (E. coli 21922, enteric pathogens) it was 2 µM; in test [20] (K. pneumonia NR 41928, ESKAPE pathogens) it was 1 µM. The molecule also gave an MIC in test [21] (S. aureus NRS 383) of more than 32 µM.

For the molecule `CC(C)CO[C@@H]1C[C@@H](C(=O)N2C[C@H](NC(=N)N)C[C@H]2C(=O)N2C[C@H](NC(=N)N)C[C@H]2C(=O)N2C[C@H](OCC(C)C)C[C@H]2C(=O)N2C[C@H](NC(=N)N)C[C@H]2C(=O)N2C[C@H](NC(=N)N)C[C@H]2C(=O)N2C[C@H](OCC(C)C)C[C@H]2C(=O)N2C[C@H](NC(=N)N)C[C@H]2C(=O)N2C[C@H](NC(=N)N)C[C@H]2C(=O)N2C[C@H](OCC(C)C)C[C@H]2C(=O)N2C[C@H](NC(=N)N)C[C@H]2C(=O)N2C[C@H](NC(=N)N)C[C@H]2C(=O)N2C[C@H](OCC(C)C)C[C@H]2C(N)=O)N(C(=O)CNC(=O)c2ccc(-c3c4ccc(=O)cc-4oc4cc(O)ccc34)c(C(=O)O)c2)C1` [Example 1] (X1-G[Hyp](Isobutyl)[Pro(trans-4-guanidino)][Pro(trans-4-guanidino)][Hyp](Isobutyl)[Pro(trans-4-guanidino)][Pro(trans-4-guanidino)][Hyp](Isobutyl)[Pro(trans-4-guanidino)][Pro(trans-4-guanidino)][Hyp](Isobutyl)[Pro(trans-4-guanidino)][Pro(trans-4-guanidino)][Hyp](Isobutyl)-NH2), the MIC in test [1] (19606) stood at 1 µM (≈ 2.51 µg/mL); in [2] (700221), 1 µM (≈ 2.51 µg/mL); in test [22], 2 µM (≈ 5.02 µg/mL); in [3] (NRS 101), 1 µM (≈ 2.51 µg/mL); in [4] (1706), 8 µM (≈ 20.1 µg/mL); in test [23] it was 2 µM (≈ 5.02 µg/mL). Besides, the minimal inhibitory concentration (MIC) in [5] was 1 µM (≈ 2.51 µg/mL); in test [6] (ATCC 6538), 1 µM (≈ 2.51 µg/mL); in test [7] (31041) it was 2 µM (≈ 5.02 µg/mL); in [8] (191112), 2 µM (≈ 5.02 µg/mL); in test [24], 1 µM (≈ 2.51 µg/mL); in test [25], 2 µM (≈ 5.02 µg/mL). Moreover, the MIC came to 2 µM (≈ 5.02 µg/mL) in [9] (1134); 1 µM (≈ 2.51 µg/mL) in test [10] (LT2); 2 µM (≈ 5.02 µg/mL) in [11] (50573); 0.5 µM (≈ 1.26 µg/mL) in test [12] (1747); 4 µM (≈ 10 µg/mL) in test [13] (48982); 4 µM (≈ 10 µg/mL) in test [14]. Further, the MIC in [15] (31040) was found to be 2 µM (≈ 5.02 µg/mL); in [16] (NRS 382), 2 µM (≈ 5.02 µg/mL); in test [17] (1605), 0.5 µM (≈ 1.26 µg/mL); in [18] (NRS 384), 2 µM (≈ 5.02 µg/mL); in test [19] (21922), 1 µM (≈ 2.51 µg/mL); in test [20], 1 µM (≈ 2.51 µg/mL). In [21] (NRS 383), this molecule came in with an MIC of 2 µM (≈ 5.02 µg/mL).
